From PMC9351488 (Proceedings of the National Academy of Sciences of the …, 2022) come the findings set out here.

Counter-ions that a name gives are not always drawn.

Holding throughout (format): in vivo, mouse
Series [1] relates to spinal cord of naïve WT mice. The series can be described thus: Spinal cord immunohistochemistry. The settings on record: i.t. daily for 7 d, H-20 30 nmol or morphine 2 nmol.
The test system of series [2] is mice. The series can be described thus: Antinociceptive tolerance in CFA model. The settings on record: i.t. 7 consecutive days, H-20 30 nmol or morphine 20 nmol.
Series [3] has as its system mice. Nature of the series: Conditioned place preference. The conditions noted are these: i.t. H-20 30 nmol or morphine 2 nmol.
Series [4] has as its system mice. Nature of the series: Open field test. The conditions noted are these: i.t., 30 min before test.
Series [5] relates to mice. Nature of the series: Rotarod test. The conditions noted are these: i.t. H-20 30 nmol or morphine 2 nmol, 15 to 120 min.
The subject of series [6] is naïve WT mice. Nature of the series: Acute itch behaviors. The conditions noted are these: i.t., counted within 30 min, morphine 2 nmol.

In the case of `CN1CC[C@]23c4c5ccc(O)c4O[C@H]2[C@@H](O)C=C[C@H]3[C@H]1C5` [morphine, Morphine hydrochloride], in series [1], the “microglial activation in spinal cord” value is “induced significant microglial activation” and the “number of c-Fos–positive neurons in spinal cord” value is listed as “markedly increased the number of c-Fos–positive neurons”. Further, the “antiallodynic effect after repeated injection (tolerance)” value in series [2] is “significantly decreased on test day 7”. Also, the CPP response entry in series [3] is listed as “significant increase in the drug-treated chamber”. Also, the “time in center area and frequency of entry into central zone (anxiety)” value in series [4] is recorded as “No intergroup differences were observed”. Besides, the time on rotarod entry in series [5] was “did not change the length of time”. Also, the itch-related scratching behaviors entry in series [6] is on record as “significantly evoked itch-related scratching behaviors”.
